Laboratory results as given in PubChem BioAssay AID588633 (Johns Hopkins Ion Channel Center, 2011).
Calls of active or inactive are those of the source.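 Rule for the calls: active = TRPV1 channel activation above 50%; inactive = activation of 50% or less.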

Target: Transient receptor potential cation channel subfamily V member 1 (Homo sapiens) (UniProt Q8NER1)
Experiment: TRPV1 channel agonists by patch clamp, confirmation, automated patch clamp, HEK293 cells (AID 588633)
Details: TRPV1-HEK293, automated patch clamp current; at 10 µM; active compounds read high

Sequence of Transient receptor potential cation channel subfamily V member 1 (Homo sapiens) (Q8NER1 whole entry, looked up): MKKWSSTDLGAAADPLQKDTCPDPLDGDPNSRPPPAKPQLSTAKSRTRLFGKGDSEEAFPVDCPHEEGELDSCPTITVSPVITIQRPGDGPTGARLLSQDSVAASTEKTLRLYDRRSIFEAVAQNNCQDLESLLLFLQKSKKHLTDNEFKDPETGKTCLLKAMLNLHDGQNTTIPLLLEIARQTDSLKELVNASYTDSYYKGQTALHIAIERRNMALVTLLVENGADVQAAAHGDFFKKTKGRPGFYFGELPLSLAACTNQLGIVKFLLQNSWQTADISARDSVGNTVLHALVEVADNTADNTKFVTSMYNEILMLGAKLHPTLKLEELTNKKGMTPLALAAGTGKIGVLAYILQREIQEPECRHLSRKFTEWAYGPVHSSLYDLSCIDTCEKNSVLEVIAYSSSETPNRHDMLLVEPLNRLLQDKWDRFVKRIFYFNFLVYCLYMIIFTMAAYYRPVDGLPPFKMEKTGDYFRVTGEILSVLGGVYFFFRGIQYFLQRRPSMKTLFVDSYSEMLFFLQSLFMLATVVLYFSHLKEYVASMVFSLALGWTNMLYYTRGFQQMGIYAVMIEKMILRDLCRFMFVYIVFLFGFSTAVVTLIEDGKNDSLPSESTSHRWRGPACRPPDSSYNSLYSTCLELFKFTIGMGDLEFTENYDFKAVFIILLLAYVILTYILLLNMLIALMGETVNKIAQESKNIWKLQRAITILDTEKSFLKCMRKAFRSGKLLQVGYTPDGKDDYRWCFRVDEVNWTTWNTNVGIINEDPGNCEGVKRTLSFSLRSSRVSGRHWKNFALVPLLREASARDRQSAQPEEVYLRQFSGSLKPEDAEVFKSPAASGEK

| activation | SMILES |
| --- | --- |
| 200% | Cc1ccc(Nc2ncnc3c2oc2ccccc23)cc1 |
| 5.79% (inactive) | CS(=O)(=O)N1CCc2cc(C(=O)Nc3ccc(Br)cc3)ccc21 |
| 111% | CCc1nc(Nc2ccc3c(c2)OCCO3)c2oc3ccccc3c2n1 |
| 387% | CC(C)c1ccc(NC2CCCN(C(=O)c3ccco3)C2)cc1 (centres undefined) |
| 148% | Cc1ccc(/C=N/Nc2nc(N3CCCCC3)nc(N3CCCCC3)n2)o1 |
| 323% | O=C(C1=C[C@@H](c2ccccc2)C[C@@H](OCc2ccc(CO)cc2)O1)N1CCCCCCC1 |
| 69.2% | CC(C)(C)c1ccc(/C=C/C(=O)Nc2ccncc2)cc1 |
| 131% | CC(C)(C)c1ccc(/C=C/C(=O)Nc2cccnc2)cc1 |
| 156% | CC(C)c1ccc(CNNC(=O)c2ccccc2)cc1 |
| 34.8% (inactive) | Cc1nc(Nc2cccc(Cl)c2)c2oc3ccccc3c2n1 |
| 272% | COc1ccc(CNC(=S)NCc2ccc(Cl)cc2)cc1OC |
| 135% | CC(C)c1ccc(NC(=O)N2CCC(c3nc4ccccc4o3)CC2)cc1 |
| 9.95% (inactive) | CC(C)(C)c1ccc(/C=N/OCC(=O)NCc2ccc(F)cc2)cc1 |
| 242% | CC(C)c1ccc(/C=C/C(=O)N2CCOCC2)cc1 |
| 10.9% (inactive) | CCC(C)Sc1cccc(-c2nc3ccc(Cl)cn3c2NCc2ccccc2)c1 (centres undefined) |
| 39.6% (inactive) | CC(C)(C)c1ccc(OCCNC(=O)Cc2ccc(F)cc2)cc1 |
| 265% | CC(C)(C)c1cc(CCC(=O)NCc2ccncc2)cc(C(C)(C)C)c1O |
| 57% | CCCCCC1CCC(C(=O)N2CCOCC2)CC1 (centres undefined) |
| 419% | COc1ccc(Nc2nc(C)nc3c2oc2ccccc23)cc1 |
| 467% | CC1CCCN(c2ccc(C(=O)Nc3cccnc3)cc2[N+](=O)[O-])C1 (centres undefined) |
| 48.6% (inactive) | COc1ccc(Nc2ncnc3c2oc2ccccc23)cc1 |
| 67% | O=C(Nc1cccnc1)c1ccc(-c2ccccc2)cc1 |
| 32.4% (inactive) | Cc1cnc(NC(=O)c2cc3c(s2)CCCC3)s1 |

| activation | SMILES |
| --- | --- |
| 585% | O=C(CCc1ccccc1)N1CCCC(Nc2ccc(F)cc2)C1 (centres undefined) |
| 69.7% | CC(=O)c1ccc(Nc2ncnc3c2oc2ccccc23)cc1 |
| 54.6% | Cc1ccc(C(=O)Nc2ccc(SC(F)F)cc2)s1 |
| 97.1% | O=C(NCc1ccccc1)[C@@H]1C[C@H]1[C@@H](NP(=O)(c1ccccc1)c1ccccc1)c1ccccc1 |
| 316% | CC(=O)c1ccc(N2CCN(C(=O)Nc3ccc(C(C)C)cc3)CC2)cc1 |
| 440% | CCC(C)(C)c1ccc(OCC(=O)Nc2ccncc2)cc1 |
| 402% | Cc1ccc(NC(=O)c2cc3c(s2)CCCC3)cc1 |
| 304% | CC(C)(C)c1ccc(OCCCC(=O)N2CCOCC2)cc1 |
| 105% | Cc1ccc(C2=NN(C)c3nc4ccccc4n3C2)cc1 |
| 63.1% | CCC(C)Sc1cccc(-c2nc3cc(C)ccn3c2NCc2ccccc2)c1 (centres undefined) |
| 12.5% (inactive) | CC1CCN(C(=O)/C=C/c2ccc(C(C)(C)C)cc2)CC1 |
| 33.5% (inactive) | Cc1ccc(N2CCN(C(=O)N3CCOCC3)CC2)c(C)c1 |
| 6.07% (inactive) | CC(=O)c1ccc(N2CCN(C(=O)Nc3ccc(Cl)cc3)CC2)cc1 |
| 30% (inactive) | CC(=O)Nc1ccc(N=Cc2c(O)ccc3ccccc23)cc1 |
| 57.6% | CC(C)c1ccc(NCCC(=O)c2cccs2)cc1 |
| 155% | CC(=O)c1ccc(NC(=O)N2CCN(c3ccc(C)cc3)C(C)C2)cc1 (centres undefined) |
| 330% | COc1ccc(NC2c3ccccc3C(=O)N2Cc2ccc3c(c2)OCO3)cc1 (centres undefined) |
| 10.6% (inactive) | Oc1ccccc1N=Cc1c(O)ccc2ccccc12 |
| 23.2% (inactive) | NS(=O)(=O)c1ccc(NC(=O)c2ccc3c(c2)CCCC3)cc1 |
| 23.7% (inactive) | CCCSc1ccc(-c2nn(-c3ccccc3)cc2/C=C(/C#N)C(=O)N2CCOCC2)cc1 |
| 34.9% (inactive) | O=C(COC(=O)C12CC3CC(CC(C3)C1)C2)Nc1ccc2[nH]c(=O)[nH]c2c1 |
| 76.2% | Cc1cc(C(=O)N/N=C/c2cccc([N+](=O)[O-])c2)c(C)n1-c1ccccc1 |
| 5.26% (inactive) | O=C(Nc1cccc([N+](=O)[O-])c1)c1ccc(-c2ccccc2)cc1 |

| activation | SMILES |
| --- | --- |
| 157% | O=C(C1=NOC(CNc2ncc(C(F)(F)F)cc2Cl)C1)N1CCOCC1 (centres undefined) |
| 1.55% (inactive) | Cc1ccc2nc(-c3ccccn3)cc(C(=O)Nc3ccc4c(c3)OCO4)c2c1 |
| 272% | O=C(/C=C\c1cn(-c2ccccc2)nc1-c1cccs1)N1CCOCC1 |
| 199% | CCc1ccc(/C=C2\SC(N3CCOCC3)=NC2=O)cc1 |
| 291% | CCN(c1ccc(NC(=O)c2ccc(Cl)nc2)cc1)C(C)C |
| 334% | O=C(c1cc(-c2ccc(Cl)cc2Cl)on1)N1CCOCC1 |
| 197% | O=C(Nc1ccc(N2CCCCCC2)cc1)c1cccc(S(=O)(=O)N2CCOCC2)c1 |
| 145% | O=C(Nc1ccc(C(F)(F)F)cc1)c1ccc2ncsc2c1 |
| 6.35% (inactive) | Cc1cc2oc(C(=O)Nc3cccnc3)c(C)c2cc1C |
| 335% | Cc1ncsc1CCC(=O)N1CCCC(Nc2ccc(C(C)C)cc2)C1 (centres undefined) |
| 17.2% (inactive) | CCCCCCC1CCC(C(=O)N2CCOCC2)CC1 (centres undefined) |
| 27.4% (inactive) | CCC(C)Sc1ccc(-c2nc3ccc(C)cn3c2NCc2ccccc2)cc1OC (centres undefined) |
| 4.84% (inactive) | CCc1ccc2oc(C(=O)Nc3cccnc3)c(C)c2c1 |
| 143% | COc1ccc(Cn2nc(-c3ccccc3)c(N3CCCCC3)cc2=O)cc1 |
| -2.6% (inactive) | O=C(NCCCc1ccccc1)c1ccc(F)cc1 |
| 317% | Cc1ccc(Nc2nc(C)nc3c2oc2ccccc23)cc1 |
| 369% | Cc1cc(C(=O)NCCC2=CCCCC2)ccc1[N+](=O)[O-] |
| 253% | CCCn1c(SC(C)C(=O)N2CCOCC2)nc2ccc(Br)cc2c1=O (centres undefined) |
| 420% | CC(C)(C)c1ccc(/C=C/C(=O)N2CCCCC2)cc1 |
| 40.5% (inactive) | O=C(Nc1ccccc1)c1cc(-c2ccccc2Cl)no1 |
| 3.59% (inactive) | CC(C)(C)c1ccc(C(=O)Nc2ccc3c(c2)C(=O)NC3=O)cc1 |
| 378% | CC(C)(C)c1ccc(C(=O)Nc2ccc(S(N)(=O)=O)cc2)cc1 |
| 27.1% (inactive) | CCN(CC)S(=O)(=O)c1ccc(/C=C/C(=O)Nc2ccc(N3CCOCC3)cc2)cc1 |

| activation | SMILES |
| --- | --- |
| 406% | COc1ccc(NC(=O)CCCSc2nc(-c3ccco3)cc(C(F)(F)F)n2)cc1OC |
| 43.2% (inactive) | CCOC(=O)c1sc(-c2ccccc2)cc1NC(=O)Nc1ccccc1 |
| 93.7% | CC(C)CCSc1nc(N2CCOCC2)c2c(c1C#N)CC(C)(C)OC2 |
| 338% | CCCOc1ccc(/C=C/C(=O)N2CCOCC2)cc1 |
| 77.3% | CC(OC(=O)CC1CCCCC1)C(=O)Nc1ccc(F)cc1 (centres undefined) |
| 229% | Cc1cccn2c(=O)c3cc(C(=O)NCC4CCCO4)c(=N)n(Cc4ccc(F)cc4)c3nc12 (centres undefined) |
| 197% | COCCNC(=O)CCc1c(C)nc2c(c(C)nn2-c2ccc(C)cc2)c1C |
| 51.6% | COc1ccc(C(=O)Nc2ccc(C3=NNC(=O)CC3C)cc2NC(=O)c2ccc(OC)cc2)cc1 (centres undefined) |
| 28.7% (inactive) | CCc1ccc(NC(=O)Nc2ccc3c(c2)N(C)C(=O)CS3)cc1 |
| 196% | O=C(NCc1cccnc1)C1CCC(c2ccc(Cl)cc2)CC1 (centres undefined) |
| 173% | COc1cccc(/C=N/n2c(SC)nnc2-c2ccccc2)c1O |
| 34% (inactive) | CCOC(=O)[C@H]1[C@H]2COc3ccc(Cl)cc3[C@@H]2N2C(=O)c3ccc(C)cc3NC(=O)[C@@]12C |
| 182% | CC(C)(C)c1ccc2c(c1)OC(C(=O)N/N=C\c1ccncc1)CO2 (centres undefined) |
| 200% | Cc1cc2c(NC(=O)Nc3ccc(C(C)(C)C)cc3)cccc2nn1 |
| 58.3% | Cc1nc(Nc2cccc(F)c2)c2oc3ccccc3c2n1 |
| 199% | CC(C)(C)c1ccc(NC(=O)c2ccsc2)cc1 |
| 128% | CCc1nc(Nc2ccccc2)c2oc3ccccc3c2n1 |
| 287% | CC(C)(C)c1ccc(NC(=O)N2CCCN(c3ccc([N+](=O)[O-])cn3)CC2)cc1 |
| 226% | O=C(/C=C\c1cn(-c2ccccc2)nc1-c1ccc2c(c1)OCCO2)N1CCOCC1 |
| 61.2% | COC(=O)c1[nH]c2ccc(C)cc2c1NC(=O)CN1CCCC(C)(C)C1 |
| 427% | CCN(CCNC(=O)c1ccc(C#N)cc1)c1cccc(C)c1 |
| 50.9% | Cc1ccc(S(=O)(=O)Cc2ccc(C(=O)NCCc3ccccc3)o2)cc1 |
| 28.7% (inactive) | CC(C)(C)OC(=O)CNC(=O)c1[nH]cnc1C(=O)N[C@@H](Cc1ccccc1)C(=O)OC(C)(C)C |

| SMILES | activation |
| --- | --- |
| Cc1ccc(Cn2nc(C(=O)Nc3ccc(Br)cc3)cc2C)cc1 | 26.9% (inactive) |
| CCCCCCCCC(=O)NCc1ccc(O)c(OC)c1 | 43.2% (inactive) |
